Data from patent US20160158317A1, “Antimicrobial Peptide Variants and Polynucleotides Encoding Same” (Adenium Biotech A/S, priority 2010, published 2016).
Where a SMILES comes first, the peptide text is derived from it. Bridges are numbered along the chain shown (N, C = ends).

Assay: Determination of the protein binding (90% serum, 30 kDa filter, HPLC)
Type: in vitro ADME
Conditions: serum
Method: Protein binding assays were performed as follows. The purified peptides were mixed with 90% serum and centrifuged through a 30 kDa filter. The ultra-filtrate and the non filtrated serum samples were quantified by HPLC measurements and the protein binding was subsequently calculated.

SMILES	fraction unbound
CC(C)[C@@H]1NC(=O)CNC(=O)[C@H](CC(N)=O)NC(=O)[C@H](CCCNC(=N)N)NC(=O)[C@H](Cc2ccc(O)cc2)NC(=O)[C@H](C(C)C)NC(=O)[C@@H]2CSSC[C@H](NC(=O)[C@H](Cc3ccc(O)cc3)NC(=O)[C@H](CCCNC(=N)N)NC1=O)C(=O)N[C@@H](Cc1c[nH]cn1)C(=O)N[C@@H](CCCNC(=N)N)C(=O)N[C@@H](CCCNC(=N)N)C(=O)N[C@H](C(=O)N[C@@H](CC(N)=O)C(=O)O)CSSC[C@H](NC(=O)[C@H](Cc1ccccc1)NC(=O)CN)C(=O)N[C@@H](Cc1c[nH]c3ccccc13)C(=O)N[C@@H](CC(N)=O)C(=O)N[C@@H](C(C)C)C(=O)N2 [compound 254] (H-GFCWNVCVYRNGVRYCHRRCN-OH; disulfide 3-20, 7-16 (inferred); N-terminus and C-terminus assumed)	0.23
CC(C)[C@@H]1NC(=O)CNC(=O)[C@H](CC(N)=O)NC(=O)[C@H](CCCNC(=N)N)NC(=O)[C@H](Cc2ccc(O)cc2)NC(=O)[C@H](C(C)C)NC(=O)[C@@H]2CSSC[C@H](NC(=O)[C@H](CO)NC(=O)[C@H](CCCNC(=N)N)NC1=O)C(=O)N[C@@H](Cc1ccc(O)cc1)C(=O)N[C@@H](CCCNC(=N)N)C(=O)N[C@@H](CCCNC(=N)N)C(=O)N[C@H](C(=O)N[C@@H](CC(N)=O)C(=O)O)CSSC[C@H](NC(=O)[C@H](Cc1ccccc1)NC(=O)CN)C(=O)N[C@@H](Cc1c[nH]c3ccccc13)C(=O)N[C@@H](CCCNC(=N)N)C(=O)N[C@@H](C)C(=O)N2 [compound 320] (H-GFCWRACVYRNGVRSCYRRCN-OH; disulfide 3-20, 7-16)	0.12
CC(C)[C@@H]1NC(=O)CNC(=O)[C@H](CC(N)=O)NC(=O)[C@H](CCCNC(=N)N)NC(=O)[C@H](Cc2ccc(O)cc2)NC(=O)[C@H](C(C)C)NC(=O)[C@@H]2CSSC[C@H](NC(=O)[C@H](C(C)C)NC(=O)[C@H](CCCNC(=N)N)NC1=O)C(=O)N[C@@H](Cc1ccc(O)cc1)C(=O)N[C@@H](CCCNC(=N)N)C(=O)N[C@@H](CCCNC(=N)N)C(=O)N[C@H](C(=O)N[C@@H](CC(N)=O)C(=O)O)CSSC[C@H](NC(=O)[C@H](Cc1ccccc1)NC(=O)CN)C(=O)N[C@@H](Cc1c[nH]c3ccccc13)C(=O)N[C@@H](Cc1ccc(O)cc1)C(=O)NCC(=O)N2 [compound 15] (H-GFCWYGCVYRNGVRVCYRRCN-OH; disulfide 3-20, 7-16 (inferred); N-terminus and C-terminus assumed)	0.04
CC(C)[C@@H]1NC(=O)CNC(=O)[C@H](CC(N)=O)NC(=O)[C@H](CCCNC(=N)N)NC(=O)[C@H](Cc2ccc(O)cc2)NC(=O)[C@H](C(C)C)NC(=O)[C@@H]2CSSC[C@H](NC(=O)[C@H](C(C)C)NC(=O)[C@H](CCCNC(=N)N)NC1=O)C(=O)N[C@@H](Cc1c[nH]cn1)C(=O)N[C@@H](CCCNC(=N)N)C(=O)N[C@@H](CCCNC(=N)N)C(=O)N[C@H](C(=O)NCC(=O)O)CSSC[C@H](NC(=O)[C@H](Cc1ccccc1)NC(=O)CN)C(=O)N[C@@H](Cc1c[nH]c3ccccc13)C(=O)N[C@@H](CC(N)=O)C(=O)N[C@@H](C(C)C)C(=O)N2 [compound 281] (H-GFCWNVCVYRNGVRVCHRRCG-OH; disulfide 3-20, 7-16 (inferred); N-terminus and C-terminus assumed)	0.34
CC(C)[C@@H]1NC(=O)[C@H](CCCNC(=N)N)NC(=O)[C@H](Cc2c[nH]c3ccccc23)NC(=O)[C@@H](NC(=O)[C@H](Cc2ccccc2)NC(=O)CN)CSSC[C@@H](C(=O)N[C@@H](CC(N)=O)C(=O)O)NC(=O)[C@H](CCCNC(=N)N)NC(=O)[C@H](CCCNC(=N)N)NC(=O)[C@H](Cc2ccc(O)cc2)NC(=O)[C@@H]2CSSC[C@H](NC1=O)C(=O)N[C@@H](C)C(=O)N[C@@H](Cc1ccc(O)cc1)C(=O)N[C@@H](CCCCN)C(=O)N[C@@H](CC(N)=O)C(=O)NCC(=O)N[C@@H](CCCCN)C(=O)N[C@@H](CCCNC(=N)N)C(=O)N[C@@H](CO)C(=O)N2 [compound 523] (H-GFCWRVCAYKNGKRSCYRRCN-OH; disulfide 3-20, 7-16 (inferred); N-terminus and C-terminus assumed)	0.1
CC(C)[C@@H]1NC(=O)[C@H](Cc2c[nH]cn2)NC(=O)[C@H](Cc2c[nH]c3ccccc23)NC(=O)[C@@H](NC(=O)[C@H](Cc2ccccc2)NC(=O)CN)CSSC[C@@H](C(=O)N[C@@H](CC(N)=O)C(=O)O)NC(=O)[C@H](CCCNC(=N)N)NC(=O)[C@H](CCCNC(=N)N)NC(=O)[C@H](Cc2ccc(O)cc2)NC(=O)[C@@H]2CSSC[C@H](NC1=O)C(=O)N[C@@H](C)C(=O)N[C@@H](CCCNC(=N)N)C(=O)N[C@@H](CCCNC(=N)N)C(=O)N[C@@H](CC(N)=O)C(=O)NCC(=O)N[C@@H](C)C(=O)N[C@@H](CCCNC(=N)N)C(=O)N[C@@H](C(C)C)C(=O)N2 [compound 394] (H-GFCWHVCARRNGARVCYRRCN-OH; disulfide 3-20, 7-16 (inferred); N-terminus and C-terminus assumed)	0.2
CC(C)[C@@H]1NC(=O)CNC(=O)[C@H](CC(N)=O)NC(=O)[C@H](CCCNC(=N)N)NC(=O)[C@H](Cc2ccc(O)cc2)NC(=O)[C@H](C(C)C)NC(=O)[C@@H]2CSSC[C@H](NC(=O)[C@H](C(C)C)NC(=O)[C@H](CCCNC(=N)N)NC1=O)C(=O)N[C@@H](Cc1c[nH]cn1)C(=O)N[C@@H](CCCNC(=N)N)C(=O)N[C@@H](CCCNC(=N)N)C(=O)N[C@H](C(=O)N[C@@H](CC(N)=O)C(=O)O)CSSC[C@H](NC(=O)[C@H](Cc1ccccc1)NC(=O)CN)C(=O)N[C@@H](Cc1c[nH]c3ccccc13)C(=O)N[C@@H](CC(N)=O)C(=O)N[C@@H](Cc1c[nH]c3ccccc13)C(=O)N2 [compound 267] (H-GFCWNWCVYRNGVRVCHRRCN-OH; disulfide 3-20, 7-16 (inferred); N-terminus and C-terminus assumed)	0.15
CC(C)[C@@H]1NC(=O)CNC(=O)[C@H](CC(N)=O)NC(=O)[C@H](CCCNC(=N)N)NC(=O)[C@H](Cc2ccc(O)cc2)NC(=O)[C@H](C(C)C)NC(=O)[C@@H]2CSSC[C@H](NC(=O)[C@H](C(C)C)NC(=O)[C@H](CCCNC(=N)N)NC1=O)C(=O)N[C@@H](Cc1ccc(O)cc1)C(=O)N[C@@H](CCCNC(=N)N)C(=O)N[C@@H](CCCNC(=N)N)C(=O)N[C@H](C(=O)N[C@@H](CC(N)=O)C(=O)O)CSSC[C@H](NC(=O)[C@H](Cc1ccccc1)NC(=O)CN)C(=O)N[C@@H](C)C(=O)N[C@@H](Cc1ccc(O)cc1)C(=O)N[C@@H](C(C)C)C(=O)N2 [compound 4] (H-GFCAYVCVYRNGVRVCYRRCN-OH; disulfide 3-20, 7-16 (inferred); N-terminus and C-terminus assumed)	0.11
CC(C)C[C@@H]1NC(=O)CNC(=O)[C@H](CC(N)=O)NC(=O)[C@H](CCCNC(=N)N)NC(=O)[C@H](CCCCN)NC(=O)[C@H](C(C)C)NC(=O)[C@@H]2CSSC[C@H](NC(=O)[C@H](C(C)C)NC(=O)[C@H](CCCNC(=N)N)NC1=O)C(=O)N[C@@H](Cc1ccc(O)cc1)C(=O)N[C@@H](CCCNC(=N)N)C(=O)N[C@@H](CCCNC(=N)N)C(=O)N[C@H](C(=O)N[C@@H](CC(N)=O)C(=O)O)CSSC[C@H](NC(=O)[C@H](Cc1ccccc1)NC(=O)CN)C(=O)N[C@@H](Cc1c[nH]c3ccccc13)C(=O)N[C@@H](Cc1ccc(O)cc1)C(=O)N[C@@H]([C@@H](C)O)C(=O)N2 [compound 346] (H-GFCWYTCVKRNGLRVCYRRCN-OH; disulfide 3-20, 7-16 (inferred); N-terminus and C-terminus assumed)	0.14
